Data from patent publication US8815872B2, “Macrocyclics pyrimidines as aurora kinase inhibitors” (Merck Patent GmbH, priority 2008, dated 2014).

Columns and labels:
Assay in all cases: Other kinases, single-concentration inhibition (Table 3)
Type in all cases: biochemical
[1] = target: T1, PKCα(h) (Homo sapiens, UniProt P17252)
T1 construct: purchased Caliper Life Sciences
In short: (§1)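 Caliper mobility-shift kinase assay with labelled peptide and ATP at kinase-specific levels. 90 min, 25 °C, single compound dose.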

[2] = target: T2, EphB2(h) (Homo sapiens, UniProt P29323)
T2 construct: purchased Caliper Life Sciences
T2 sequence (P29323 19-1055): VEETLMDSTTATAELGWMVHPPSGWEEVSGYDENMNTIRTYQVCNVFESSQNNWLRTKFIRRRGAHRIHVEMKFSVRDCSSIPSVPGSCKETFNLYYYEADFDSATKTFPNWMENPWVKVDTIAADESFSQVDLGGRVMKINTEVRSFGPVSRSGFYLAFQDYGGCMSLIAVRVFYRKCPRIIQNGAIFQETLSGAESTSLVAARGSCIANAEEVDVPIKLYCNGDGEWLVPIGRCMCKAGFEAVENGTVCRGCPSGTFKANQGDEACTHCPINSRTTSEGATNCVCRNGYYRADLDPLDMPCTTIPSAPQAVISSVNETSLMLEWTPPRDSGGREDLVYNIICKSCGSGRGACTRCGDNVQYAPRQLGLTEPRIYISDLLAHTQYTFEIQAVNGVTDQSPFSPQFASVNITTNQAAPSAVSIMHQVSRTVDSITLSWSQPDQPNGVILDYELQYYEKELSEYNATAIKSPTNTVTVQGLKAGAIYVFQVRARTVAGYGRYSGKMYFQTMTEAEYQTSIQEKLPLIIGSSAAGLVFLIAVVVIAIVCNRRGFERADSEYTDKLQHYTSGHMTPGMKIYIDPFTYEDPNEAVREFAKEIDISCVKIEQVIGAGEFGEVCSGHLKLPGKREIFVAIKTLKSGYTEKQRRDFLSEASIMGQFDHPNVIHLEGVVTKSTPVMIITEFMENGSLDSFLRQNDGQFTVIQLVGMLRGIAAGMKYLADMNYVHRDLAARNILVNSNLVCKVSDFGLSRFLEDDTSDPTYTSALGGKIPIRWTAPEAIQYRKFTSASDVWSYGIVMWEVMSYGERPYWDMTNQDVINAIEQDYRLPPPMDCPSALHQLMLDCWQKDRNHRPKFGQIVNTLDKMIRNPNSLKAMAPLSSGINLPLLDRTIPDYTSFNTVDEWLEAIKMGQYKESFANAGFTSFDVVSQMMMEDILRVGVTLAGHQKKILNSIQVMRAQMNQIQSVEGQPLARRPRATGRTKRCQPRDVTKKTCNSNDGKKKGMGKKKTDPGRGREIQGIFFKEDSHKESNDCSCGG
In short: as §1

[3] = target: T3, MSK2(h) (Homo sapiens, UniProt O75676)
T3 construct: purchased Caliper Life Sciences
In short: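 Each kinase was preincubated with a single compound concentration, and the reaction was then initiated with a labelled peptide substrate/ATP mix. After 90 min at 25 °C, reactions were quenched with EDTA and conversion was read by mobility shift.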

[4] = target: T4, Flt3(h) (Homo sapiens, UniProt P36888)
T4 construct: purchased Caliper Life Sciences
T4 sequence (P36888 27-993): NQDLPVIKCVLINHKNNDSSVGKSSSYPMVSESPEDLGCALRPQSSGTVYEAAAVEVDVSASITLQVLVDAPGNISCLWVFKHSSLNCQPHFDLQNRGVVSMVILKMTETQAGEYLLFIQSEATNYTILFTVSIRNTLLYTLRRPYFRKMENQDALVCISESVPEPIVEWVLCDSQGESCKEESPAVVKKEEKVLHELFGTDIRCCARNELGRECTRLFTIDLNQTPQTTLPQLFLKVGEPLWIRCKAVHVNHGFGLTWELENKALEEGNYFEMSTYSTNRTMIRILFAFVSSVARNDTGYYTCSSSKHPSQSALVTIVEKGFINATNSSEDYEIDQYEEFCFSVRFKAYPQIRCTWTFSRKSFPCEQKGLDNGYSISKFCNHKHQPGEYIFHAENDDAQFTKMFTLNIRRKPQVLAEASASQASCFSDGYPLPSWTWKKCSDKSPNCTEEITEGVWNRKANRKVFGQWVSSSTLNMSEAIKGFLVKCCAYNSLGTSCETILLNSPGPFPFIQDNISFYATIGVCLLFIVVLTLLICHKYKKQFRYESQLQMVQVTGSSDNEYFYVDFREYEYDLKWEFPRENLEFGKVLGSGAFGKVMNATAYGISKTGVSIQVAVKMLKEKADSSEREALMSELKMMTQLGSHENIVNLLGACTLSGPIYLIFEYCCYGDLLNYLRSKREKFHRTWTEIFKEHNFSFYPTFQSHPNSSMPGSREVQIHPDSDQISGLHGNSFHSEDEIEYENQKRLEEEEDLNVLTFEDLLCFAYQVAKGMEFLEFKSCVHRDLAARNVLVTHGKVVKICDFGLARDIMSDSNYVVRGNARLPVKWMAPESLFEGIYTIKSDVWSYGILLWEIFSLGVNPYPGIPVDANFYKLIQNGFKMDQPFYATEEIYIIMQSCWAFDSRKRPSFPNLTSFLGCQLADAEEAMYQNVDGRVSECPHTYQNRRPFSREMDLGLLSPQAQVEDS
In short: as §1

T3 sequence (O75676 whole entry): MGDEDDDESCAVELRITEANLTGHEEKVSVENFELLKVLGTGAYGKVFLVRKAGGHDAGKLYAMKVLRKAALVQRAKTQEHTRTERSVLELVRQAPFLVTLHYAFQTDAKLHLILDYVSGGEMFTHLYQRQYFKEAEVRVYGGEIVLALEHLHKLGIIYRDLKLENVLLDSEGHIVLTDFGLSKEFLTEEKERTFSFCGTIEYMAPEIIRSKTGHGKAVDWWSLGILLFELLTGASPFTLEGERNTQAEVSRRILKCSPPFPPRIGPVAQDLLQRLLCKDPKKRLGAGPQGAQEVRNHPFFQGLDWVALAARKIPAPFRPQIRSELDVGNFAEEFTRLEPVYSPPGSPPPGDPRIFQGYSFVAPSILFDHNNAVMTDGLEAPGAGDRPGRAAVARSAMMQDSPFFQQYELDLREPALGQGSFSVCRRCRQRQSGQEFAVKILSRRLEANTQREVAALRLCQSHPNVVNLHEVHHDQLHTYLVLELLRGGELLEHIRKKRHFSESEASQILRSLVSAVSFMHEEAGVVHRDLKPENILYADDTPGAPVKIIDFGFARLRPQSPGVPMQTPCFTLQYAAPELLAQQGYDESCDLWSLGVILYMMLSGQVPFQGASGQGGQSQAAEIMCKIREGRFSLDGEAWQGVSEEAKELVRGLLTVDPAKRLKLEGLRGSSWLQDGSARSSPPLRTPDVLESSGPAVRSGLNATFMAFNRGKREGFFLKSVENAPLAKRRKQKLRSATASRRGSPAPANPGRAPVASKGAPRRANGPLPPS

Structure (SMILES) | % inhibition PKCα(h) ([1]; 10 μM) [%] | % inhibition EphB2(h) ([2]; 10 μM) [%] | % inhibition MSK2(h) ([3]; 10 μM) [%] | % inhibition Flt3(h) ([4]; 10 μM) [%] | % inhibition PKCα(h) ([1]; 1 μM) [%] | % inhibition EphB2(h) ([2]; 1 μM) [%] | % inhibition MSK2(h) ([3]; 1 μM) [%] | % inhibition Flt3(h) ([4]; 1 μM) [%]
O=C(O)[C@H]1[C@H]2C[C@H]3[C@H]1Nc1nc(ncc1F)Nc1cccc(c1)OCCS[C@@H]3C2 [Example 21] | 91 | 8 | 75 | 2 | – | – | – | –
CN1CCN(c2ccc3cc2OCCS[C@@H]2C[C@@H]4C[C@H]2[C@@H](Nc2nc(ncc2F)N3)[C@H]4C(N)=O)CC1 [Example 22] | – | – | – | – | 100 | 16 | 60 | 24
NC(=O)[C@H]1[C@H]2C[C@H]3[C@H]1Nc1nc(ncc1F)Nc1cccc(c1)CSS[C@@H]3C2 [Example 10] | – | – | – | – | 90 | 5 | 3 | 65
C=C[C@@H]1C[C@@H]2/C=C/COc3cccc(c3)Nc3ncc(F)c(n3)N[C@H]2[C@H]1C(N)=O (single isomer, unassigned) [Example 3] | – | – | – | – | 70 | 94 | 136 | 98
CC[C@@H]1C[C@@H]2/C=C\COc3cccc(c3)Nc3ncc(F)c(n3)N[C@H]2[C@H]1C(N)=O (single isomer, unassigned) [Example 6] | – | – | – | – | 90 | 80 | 60 | 116
CC[C@@H]1C[C@@H]2CCCOc3cccc(c3)Nc3ncc(F)c(n3)N[C@H]2[C@H]1C(N)=O (single isomer, unassigned) [Example 5] | – | – | – | – | 84 | 94 | 56 | 117

The remaining lines, values ahead:

% inhibition PKCα(h) ([1]; 10 μM) [%] | % inhibition EphB2(h) ([2]; 10 μM) [%] | % inhibition MSK2(h) ([3]; 10 μM) [%] | % inhibition Flt3(h) ([4]; 10 μM) [%] | % inhibition PKCα(h) ([1]; 1 μM) [%] | % inhibition EphB2(h) ([2]; 1 μM) [%] | % inhibition MSK2(h) ([3]; 1 μM) [%] | % inhibition Flt3(h) ([4]; 1 μM) [%] | Structure (SMILES)
– | – | – | – | 107 | 27 | 48 | 16 | NC(=O)[C@H]1[C@H]2C[C@H]3[C@H]1Nc1nc(ncc1F)Nc1cccc(c1)OCCS[C@@H]3C2 [Example 20]
– | – | – | – | 102 | 67 | 65 | 66 | NC(=O)[C@H]1[C@H]2C[C@H]3[C@H]1Nc1nc(ncc1F)Nc1cccc(c1)NC(=O)CS[C@@H]3C2 [Example 27]
– | – | – | – | 94 | 115 | 89 | 102 | NC(=O)[C@H]1[C@H]2C[C@H]3[C@H]1Nc1nc(ncc1F)Nc1cccc(c1)C(=O)CS[C@@H]3C2 [Example 11]
– | – | – | – | 81 | 112 | 2 | 93 | N#Cc1ccc2cc1NC(=O)CS[C@@H]1C[C@@H]3C[C@H]1[C@@H](Nc1nc(ncc1F)N2)[C@H]3C(N)=O [Example 26]
– | – | – | – | 103 | 17 | 81 | 21 | CN1CCN(c2ccc3cc2NC(=O)CS[C@@H]2C[C@@H]4C[C@H]2[C@@H](Nc2nc(ncc2F)N3)[C@H]4C(N)=O)CC1 [Example 24]
